Source: ChEMBL document CHEMBL3397007, “Synthesis, biological activity and molecular modeling of new biphenylic carboxamides as potent and selective CB2 receptor ligands” (Eur J Med Chem, 2015)
The source made the active and inactive calls. The rule behind the calls is not given here.

How the values were obtained:
Cannabinoid receptor 2 [1] = molecular target: T1, Cannabinoid receptor 2 (Homo sapiens, UniProt P34972); test: Displacement of [3H]CP55,940 from human recombinant CB2 receptor expressed in HEK293 cell membranes after 90 mins
[2] = molecular target: Cannabinoid receptor 1 (Rattus norvegicus) (UniProt P20272); test: Antagonist activity at CB1 receptor in rat cerebellar membranes assessed as inhibition of HU-210-induced [35S]GTPgammaS binding at 10 uM; type: functional, cell membranes; settings: Cerebellum, Membrane
[3] = molecular target: Cannabinoid receptor 1 (Rattus norvegicus) (UniProt P20272); test: Agonist activity at CB1 receptor in rat cerebellar membranes at < 10 uM by [35S]GTPgammaS binding assay; type: functional, cell membranes; settings: Cerebellum, Membrane
Cannabinoid receptor 2 [4] = molecular target: T1, Cannabinoid receptor 2; test: Agonist activity at human CB2 receptor expressed in CHO cell membranes by [35S]GTPgammaS binding assay; type: functional
Cannabinoid receptor 1 = Cannabinoid receptor 1 (Homo sapiens, UniProt P21554); test: Displacement of [3H]CP55,940 from human recombinant CB1 receptor expressed in HEK293 cell membranes after 90 mins
HEK293 = test: Selectivity index, ratio of Ki for human recombinant CB1 receptor expressed in HEK293 cell membranes to Ki for human recombinant CB2 receptor expressed in HEK293 cell membranes; type: cell-based
Cannabinoid receptor 2 [5] = molecular target: T1, Cannabinoid receptor 2; test: Activity at human CB2 receptor expressed in CHO cell membranes by [35S]GTPgammaS binding assay; type: functional
Cannabinoid receptor 2 [6] = molecular target: T1, Cannabinoid receptor 2; test: Antagonist activity at human CB2 receptor expressed in CHO cell membranes assessed as inhibition of HU-210-induced [35S]GTPgammaS binding; type: functional
Cannabinoid receptor 2 [7] = molecular target: T1, Cannabinoid receptor 2; test: Neutral antagonist activity at human CB2 receptor expressed in CHO membranes assessed as inhibition of inverse agonist SR144528-induced responses by [35S]GTPgammaS binding assay; type: functional, cell membranes
Cannabinoid receptor 2 [8] = molecular target: T1, Cannabinoid receptor 2; test: Neutral antagonist activity at human CB2 receptor expressed in CHO membranes assessed as inhibition of agonist HU-210-induced responses by [35S]GTPgammaS binding assay; type: functional, cell membranes
Cannabinoid receptor 2 [9] = molecular target: T1, Cannabinoid receptor 2; test: Competitive antagonist activity at human CB2 receptor expressed in CHO membranes assessed as inhibition of HU-210-induced [35S]GTPgammaS binding by Schild-plot; type: functional, cell membranes; settings: read-out: pA2 (converted)

Cannabinoid receptor 1 (Rattus norvegicus), sequence (P20272 whole entry): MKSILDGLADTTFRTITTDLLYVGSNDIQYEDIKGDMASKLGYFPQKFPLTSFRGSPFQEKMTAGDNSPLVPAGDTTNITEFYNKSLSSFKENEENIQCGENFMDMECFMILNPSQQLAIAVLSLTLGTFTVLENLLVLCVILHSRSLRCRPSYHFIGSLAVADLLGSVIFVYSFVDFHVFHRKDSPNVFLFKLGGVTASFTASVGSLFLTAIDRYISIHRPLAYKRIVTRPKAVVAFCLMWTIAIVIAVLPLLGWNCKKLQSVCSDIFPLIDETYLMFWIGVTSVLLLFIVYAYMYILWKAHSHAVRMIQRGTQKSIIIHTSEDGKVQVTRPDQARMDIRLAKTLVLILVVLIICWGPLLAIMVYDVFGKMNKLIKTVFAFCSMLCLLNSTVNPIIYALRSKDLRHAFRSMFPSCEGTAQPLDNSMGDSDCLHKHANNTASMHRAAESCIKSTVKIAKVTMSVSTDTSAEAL
T1 sequence (P34972 whole entry): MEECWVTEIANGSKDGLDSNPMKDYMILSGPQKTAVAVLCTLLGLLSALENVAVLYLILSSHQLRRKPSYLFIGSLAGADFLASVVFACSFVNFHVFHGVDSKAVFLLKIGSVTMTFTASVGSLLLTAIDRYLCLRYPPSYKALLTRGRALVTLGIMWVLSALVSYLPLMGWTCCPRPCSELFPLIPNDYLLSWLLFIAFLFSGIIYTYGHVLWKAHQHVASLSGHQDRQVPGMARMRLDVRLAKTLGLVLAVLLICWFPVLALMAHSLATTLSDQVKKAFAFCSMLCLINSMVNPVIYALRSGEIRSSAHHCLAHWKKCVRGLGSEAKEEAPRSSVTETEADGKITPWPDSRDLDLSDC
Cannabinoid receptor 1, sequence (P21554 whole entry): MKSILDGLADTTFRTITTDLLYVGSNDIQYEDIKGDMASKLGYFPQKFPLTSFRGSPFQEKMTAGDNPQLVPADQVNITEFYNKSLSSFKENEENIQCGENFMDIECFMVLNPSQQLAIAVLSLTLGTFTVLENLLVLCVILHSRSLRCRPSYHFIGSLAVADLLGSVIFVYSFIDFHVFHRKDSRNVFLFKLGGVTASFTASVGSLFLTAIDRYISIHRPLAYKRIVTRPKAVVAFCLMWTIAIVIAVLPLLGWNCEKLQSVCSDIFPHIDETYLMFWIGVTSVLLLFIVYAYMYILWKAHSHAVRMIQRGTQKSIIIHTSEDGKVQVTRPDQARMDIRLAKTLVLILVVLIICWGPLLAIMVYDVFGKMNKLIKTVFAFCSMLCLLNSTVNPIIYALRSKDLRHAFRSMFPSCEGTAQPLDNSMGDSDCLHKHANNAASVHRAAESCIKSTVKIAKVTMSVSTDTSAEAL

SMILES: COc1c(C)cc(-c2ccc(F)cc2)cc1C(=O)N[C@H]1CC[C@@H](C)CC1
- Ki (Cannabinoid receptor 2 [1]): 60 nM
- inhibition [2]: Active
- Activity [3]: inactive
- EC50 (Cannabinoid receptor 2 [4]): 398 nM
- Ki (Cannabinoid receptor 1): 180 nM
- Ratio Ki (HEK293): 3

SMILES: CCCCc1cc(-c2ccc(OC)cc2)cc(C(=O)NC2CCCCCC2)c1OC
- Ki (Cannabinoid receptor 2 [1]): 11.5 nM
- Activity (Cannabinoid receptor 2 [5]): inactive
- inhibition (Cannabinoid receptor 2 [6]): Active
- Ki (Cannabinoid receptor 1): 1490 nM
- Ratio Ki (HEK293): 130
- inhibition (Cannabinoid receptor 2 [7]): Dose-dependent effect
- inhibition (Cannabinoid receptor 2 [8]): Dose-dependent effect
- Kb (Cannabinoid receptor 2 [9]): 794 nM

SMILES: COc1c(C)cc(-c2ccccc2)cc1C(=O)NC1CCCCCC1
- Ki (Cannabinoid receptor 2 [1]): 100 nM
- Ki (Cannabinoid receptor 1): 870 nM
- Ratio Ki (HEK293): 8.7

SMILES: COc1c(C)cc(-c2ccc(F)cc2)cc1C(=O)N[C@H]1CC[C@H](C)CC1
- Ki (Cannabinoid receptor 2 [1]): 90 nM
- Ki (Cannabinoid receptor 1): 620 nM
- Ratio Ki (HEK293): 6.89

SMILES: COc1ccc(-c2cc(C)c(OC)c(C(=O)N[C@H]3CC[C@H](C)CC3)c2)cc1
- Ki (Cannabinoid receptor 2 [1]): > 10000 nM
- Ki (Cannabinoid receptor 1): > 10000 nM

SMILES: CCCCc1cc(-c2ccc(OC)cc2)cc(C(=O)N[C@H]2CC[C@H](C)CC2)c1OC
- Ki (Cannabinoid receptor 2 [1]): 143 nM
- Activity (Cannabinoid receptor 2 [5]): inactive
- inhibition (Cannabinoid receptor 2 [6]): Active
- Ki (Cannabinoid receptor 1): 2290 nM
- Ratio Ki (HEK293): 16

SMILES: CCCC(C)(C)c1ccc2c(c1)OC(C)(C)[C@@H]1CC=C(C)C[C@@H]21
- Ratio Ki (HEK293): 226

SMILES: COc1c(C)cc(-c2ccccc2)cc1C(=O)N[C@H]1CC[C@H](C)CC1
- Ki (Cannabinoid receptor 2 [1]): 90 nM
- Ki (Cannabinoid receptor 1): 1530 nM
- Ratio Ki (HEK293): 17

SMILES: COc1c(C)cc(-c2ccc(F)cc2)cc1C(=O)NC1CCCCCC1
- Ki (Cannabinoid receptor 2 [1]): 60 nM
- inhibition [2]: Active
- Activity [3]: inactive
- EC50 (Cannabinoid receptor 2 [4]): 398 nM
- Ki (Cannabinoid receptor 1): 160 nM
- Ratio Ki (HEK293): 2.67

SMILES: COc1ccc(-c2cc(C)c(OC)c(C(=O)N[C@H]3CC[C@@H](C)CC3)c2)cc1
- Ki (Cannabinoid receptor 2 [1]): > 10000 nM
- Ki (Cannabinoid receptor 1): > 10000 nM

SMILES: COc1ccc(-c2cc(C)c(OC)c(C(=O)NC3CCCCCC3)c2)cc1
- Ki (Cannabinoid receptor 2 [1]): > 10000 nM
- Ki (Cannabinoid receptor 1): > 10000 nM

SMILES: CCCCc1cc(-c2ccc(OC)cc2)cc(C(=O)N[C@H]2CC[C@@H](C)CC2)c1OC
- Ki (Cannabinoid receptor 2 [1]): 22 nM
- Activity (Cannabinoid receptor 2 [5]): inactive
- inhibition (Cannabinoid receptor 2 [6]): Active
- Ki (Cannabinoid receptor 1): 1550 nM
- Ratio Ki (HEK293): 70

SMILES: COc1c(C)cc(-c2ccccc2)cc1C(=O)N[C@H]1CC[C@@H](C)CC1
- Ki (Cannabinoid receptor 2 [1]): 150 nM
- Ki (Cannabinoid receptor 1): 1090 nM
- Ratio Ki (HEK293): 7.27
